Data on 27 compounds can be found in patent publication US20060281763A1, “Carboxamide inhibitors of TGFbeta” (priority 2005, published 2006).

As a reminder, the IC50 is the concentration that gives 50% inhibition.

The target in one assay is T1, TGFβ R1 (Homo sapiens, UniProt P36897).
T1 sequence (P36897 34-503): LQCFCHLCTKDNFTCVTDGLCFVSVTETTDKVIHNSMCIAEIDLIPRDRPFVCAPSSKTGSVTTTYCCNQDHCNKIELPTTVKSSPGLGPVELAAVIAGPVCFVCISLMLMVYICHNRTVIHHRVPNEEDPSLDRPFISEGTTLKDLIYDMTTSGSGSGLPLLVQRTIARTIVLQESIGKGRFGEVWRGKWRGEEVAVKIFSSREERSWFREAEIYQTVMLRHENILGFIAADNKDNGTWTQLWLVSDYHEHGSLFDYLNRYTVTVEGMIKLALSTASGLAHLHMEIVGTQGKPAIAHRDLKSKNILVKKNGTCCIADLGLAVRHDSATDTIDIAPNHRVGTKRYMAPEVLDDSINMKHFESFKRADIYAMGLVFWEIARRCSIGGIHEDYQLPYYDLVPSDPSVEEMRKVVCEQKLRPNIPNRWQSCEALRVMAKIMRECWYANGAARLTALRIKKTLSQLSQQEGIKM
Nature of the assay: TGFβ R1 autophosphorylation protocol (33P-ATP, phosphocellulose filter plate). The conditions noted are these: 10 uM ATP, 170 nM TGFβ R1, 20 minutes at room temperature, read-out: IC50 for Kinase Inhibition. The class given is biochemical. How it is done: The compounds of the invention were tested for their ability to inhibit TGFβ by a TGFβ R^1 autophosphorylation protocol. This was conducted as follows: Compound dilutions and reagents were prepared fresh daily. Compounds were diluted from DMSO stock solutions to 2 times the desired assay concentration, keeping final DMSO concentration in the assay less than or equal to 1%. TGFβ R1 was diluted to 4 times the desired assay concentration in buffer+DTT. ATP was diluted into 4× reaction buffer, and gamma-^33P-ATP was added at 60 uCi/mL.
The assay was performed by adding 10 ul of the enzyme to 20 ul of the compound solution. The reaction was initiated by the addition of 10 ul of ATP mix. Final assay conditions included 10 uM ATP, 170 nM TGFβ R1, and […] in 20 mM MOPS, pH7. The reactions were incubated at room temperature for 20 minutes. The reactions were stopped by transferring 23 ul of reaction mixture onto a phosphocellulose 96-well filter plate, which had been pre-wetted with 15 ul of 0.25M H3PO4 per well. After 5 minutes, the wells were washed 4× with 75 mM H3PO4 and once with 95% ethanol. The plate was dried, scintillation cocktail was added to each well, and the wells were counted in a Packard TopCount microplate scintillation counter.
As for `COc1cnc(-c2cc(Cl)ccc2F)nc1Nc1ccncc1C(=O)NCC1CCCC[C@H]1O` (stereo in doubt) [Compound 31, 4-[2-(5-Chloro-2-fluoro-phenyl)-5-methoxy-pyrimidin-4-ylamino]-N-(2-hydroxy-cyclohexylmethyl)-nicotinamide], the IC50 turned out to be 370 nM.

Consider `COc1cnc(-c2cc(Cl)ccc2F)nc1Nc1ccncc1C(=O)NCCCNCCOC1O[C@H](COC(C)=O)[C@@H](OC(C)=O)[C@H](OC(C)=O)[C@H]1OC(C)=O` (stereo in doubt) [Compound 132, Acetic acid 3,4,5-triacetoxy-6-{2-[3-({4-[2-(5-chloro-2-fluoro-phenyl)-5-methoxy-pyrimidin-4-ylamino]-pyridine-3-carbonyl)-amino)-propylamino]-ethoxy}-tetrahydro-pyran-2-ylmethyl ester], for which the IC50 came to 32 nM.

In the case of `COc1cnc(-c2cc(Cl)ccc2F)nc1Nc1ccncc1C(=O)NCCCNC(=O)COC1O[C@H](CO)[C@@H](O)[C@H](O)[C@H]1O` (stereo in doubt) [Compound 135, 4-[2-(5-Chloro-2-fluoro-phenyl)-5-methoxy-pyrimidin-4-ylamino]-N-{3[2-(3,4,5-trihydroxy-6-hydroxymethyl-tetrahydro-pyran-2-yloxy)-acetylamino]-propyl)-nicotinamide], the IC50 was 60 nM.

For `CCOC(=O)CNC(=O)c1cnccc1Nc1nc(-c2cc(Cl)ccc2F)ncc1OC` [Compound 1, ({4-[2-(5-Chloro-2-fluoro-phenyl)-5-methoxy-pyrimidin-4-ylamino]pyridine-3-carbonyl}-amino)-acetic acid ethyl ester], the IC50 worked out at 40 nM.

Regarding `COc1cnc(-c2cc(Cl)ccc2F)nc1Nc1ccncc1C(=O)NCC(=O)O` [Compound 2, ({4-[2-(5-Chloro-2-fluoro-phenyl)-5-methoxy-pyrimidin-4-ylamino]-pyridine 3-carbonyl}-amino)-acetic acid], the IC50 was 920 nM.

As to `COc1cnc(-c2cc(Cl)ccc2F)nc1Nc1ccncc1C(=O)NCCNCC(C)O` (stereo not drawn) [Compound 5], the IC50 is 20 nM.

As to `COc1cnc(-c2cc(Cl)ccc2F)nc1Nc1ccncc1C(=O)NCCNCCO` [Compound 6, 4-[2-(5-Chloro-2-fluoro-phenyl)-5-methoxy-pyrimidin-4-ylamino]-N-[2-(2-hydroxy-ethylamino)-ethyl]-nicotinamide], the IC50 came out at 10 nM.

Take `COc1cnc(-c2cc(Cl)ccc2F)nc1Nc1ccncc1C(=O)NCCCN(C)C` [Compound 7, 4-[2-(5-Chloro-2-fluoro-phenyl)-5-methoxy-pyrimidin-4-ylamino]-N-(3-dimethylamino-propyl)-nicotinamide]: the IC50 worked out at 30 nM.

As for `COc1cnc(-c2cc(Cl)ccc2F)nc1Nc1ccncc1C(=O)NC1CCN(C(=O)OC(C)(C)C)CC1` [Compound 8, 4-({4-[2-(5-Chloro-2-fluoro-phenyl)-5-methoxy-pyrimidin-4-ylamino]-pyridine-3-carbonyl}-amino)-piperidine-1-carboxylic acid tert-butyl ester], the IC50 is 60 nM.

As for `COc1cnc(-c2cc(Cl)ccc2F)nc1Nc1ccncc1C(=O)NCCCN1CCOCC1` [Compound 9, 4-[2-(5-Chloro-2-fluoro-phenyl)-5-methoxy-pyrimidin-4-ylamino]-N-(3-morpholin-4-yl-propyl)-nicotinamide], the IC50 worked out at 30 nM.

In the case of `COc1cnc(-c2cc(Cl)ccc2F)nc1Nc1ccncc1C(=O)NCCCn1ccnc1` [Compound 10, 4-[2-(5-Chloro-2-fluoro-phenyl)-5-methoxy-pyrimidin-4-ylamino]-N-(3-inidazol-1-yl-propyl)-nicotinamide], the 50% inhibitory concentration (IC50) worked out at 60 nM.

Consider `COc1cnc(-c2cc(Cl)ccc2F)nc1Nc1ccncc1C(=O)NCCCN1CCCC1=O` [Compound 11, 4-{2-(5-Chloro-2-fluoro-phenyl)-5-methoxy-pyrimidin-4-ylamino]-N-[3-(2-oxo-pyrrolidin-1-yl)-propyl]-nicotinamide], for which the IC50 was found to be 120 nM.

In the case of `COc1cnc(-c2cc(Cl)ccc2F)nc1Nc1ccncc1C(=O)NCCCN1CCCCC1C` (stereo not drawn) [Compound 12, 4-[2-(5-Chloro-2-fluoro-phenyl)-5-methoxy-pyrimidin-4-ylamino]-N-[3-(2-methyl-piperidin-1-yl)-propyl]-nicotinamide], the IC50 was 60 nM.

On to `COc1cnc(-c2cc(Cl)ccc2F)nc1Nc1ccncc1C(=O)NCCCNCCNC(C)C` [Compound 14], for which the IC50 worked out at 120 nM.

With `O=C(NC1CC1)c1cnccc1Nc1nc(-c2cc(Cl)ccc2F)ncc1N1CCCC1` [Compound 21, 4-[2-(5-Chloro-2-fluoro-phenyl)-5-pyrrolidin-1-yl-pyrimidin-4-ylamino]-N-cyclopropyl-nicotinamide], the IC50 was found to be 180 nM.

Turning to `CNCCNC(=O)c1cnccc1Nc1nc(-c2cc(Cl)ccc2F)ncc1N1CCCC1` [Compound 22, 4-[2-(5-Chloro-2-fluoro-phenyl)-5-pyrrolidin-1-yl-pyrimidin-4-ylamino]-N-(2-methylamino-ethyl)-nicotinamide], the IC50 was found to be 100 nM.

Consider `CC(C)NCCNC(=O)c1cnccc1Nc1nc(-c2cc(Cl)ccc2F)ncc1N1CCCC1` [Compound 23, 4-[2-(5-Chloro-2-fluoro-phenyl)-5-pyrrolidin-1-yl-pyrimidin-4-ylamino]-N-(2-isopropylamino-ethyl)-nicotinamide], for which the IC50 is 200 nM.

`O=C(NCCO)c1cnccc1Nc1nc(-c2cc(Cl)ccc2F)ncc1N1CCCC1` [Compound 24, 4-[2-(5-Chloro-2-fluoro-phenyl)-5-pyrrolidin-1-yl-pyrimidin-4-ylamino]-N-(2-hydroxy-ethyl)-nicotinamide]: the IC50 turned out to be 490 nM.

For the compound `O=C(NCCN1CCCC1)c1cnccc1Nc1nc(-c2cc(Cl)ccc2F)ncc1N1CCCC1` [Compound 26, 4-[2-(5-Chloro-2-fluoro-phenyl)-5-pyrrolidin-1-yl-pyrimidin-4-ylamino]-N-(2-pyrrolidin-1-yl-ethyl)-nicotinamide], the IC50 is 200 nM.

Regarding `COc1cnc(-c2cc(Cl)ccc2F)nc1Nc1ccncc1C(=O)NCCCN1CCCC1` [Compound 29], the IC50 was 30 nM.

As for `COc1cnc(-c2cc(Cl)ccc2F)nc1Nc1ccncc1C(=O)NCC1CN(Cc2ccccc2)CCO1` (stereo not drawn) [Compound 30, N-(4-Benzyl-morpholin-2-ylmethyl)-4-[2-(5-chloro-2-fluoro-phenyl)-5-methoxy-pyrimidin-4-ylamino)-nicotinamide], the IC50 was 2370 nM.

On to `COc1cnc(-c2cc(Cl)ccc2F)nc1Nc1ccncc1C(=O)NCCNC(=O)OC(C)(C)C` [Compound 32, [2-({4-[2-(5-Chloro-2-fluoro-phenyl)-5-methoxy-pyrimidin-4-ylamino]-pyridine-3-carbonyl}-amino)-ethyl]-carbamic acid tert-butyl ester], for which the IC50 is 560 nM.

The same assay, now with this note: 10 uM ATP, 170 nM TGFβ R1, room temperature 20 minutes, read-out: IC50 for Kinase Inhibition.
Turning to `CC(C)c1cnc(-c2cc(Cl)ccc2F)nc1Nc1ccncc1C(=O)NC1C[C@@H]1CO` (stereo in doubt) [Compound 215, 4-[2-(5-Chloro-2-fluoro-phenyl)-5-isopropyl-pyrimidin-4-ylamino]-N-(2-hydroxymethyl-cyclopropyl)-nicotinamide], the IC50 was 5 nM.

Consider `CC(C)c1cnc(-c2cc(Cl)ccc2F)nc1Nc1ccncc1C(=O)NC1C[C@H]1CO` (stereo in doubt) [Compound 216, 4-[2-(5-Chloro-2-fluoro-phenyl)-5-isopropyl-pyrimidin-4-ylamino]-N-(2-hydroxymethyl-cyclopropyl)-nicotinamide], for which the IC50 is 10 nM.

On to `CC(C)c1cnc(-c2cc(Cl)ccc2F)nc1Nc1ccncc1C(=O)N[C@@H]1CCC[C@H]1OCc1ccccc1` (stereo in doubt) [Compound 222, N-(2-Benzyloxy-cyclopentyl)-4-[2-(5-chloro-2-fluoro-phenyl)-5-isopropyl-pyrimidin-4-ylamino]-nicotinamide], for which the IC50 is 7700 nM.

On to `CC(C)c1cnc(-c2cc(Cl)ccc2F)nc1Nc1ccncc1C(=O)NC1CCC[C@@H]1OCc1ccccc1` (stereo in doubt) [Compound 223, N-(2-Benzyloxy-cyclopentyl)-4-[2-(5-chloro-2-fluoro-phenyl)-5-isopropyl-pyrimidin-4-ylamino]-nicotinamide], for which the IC50 was 7140 nM.

As to `CC(C)c1cnc(-c2cc(Cl)ccc2F)nc1Nc1ccncc1C(=O)N[C@H]1CCC[C@@H]1O` (stereo in doubt) [Compound 235, 4-[2-(5-Chloro-2-fluoro-phenyl)-5-isopropyl-pyrimidin-4-ylamino]-N-(2-hydroxy-cyclopentyl)-nicotinamide], the IC50 was 40 nM.
